Data taken from US11020383B2, “Methods for the treatment of cancer metastasis” (THE BOARD OF REGENTS OF THE UNIVERSITY OF TEXAS SYSTEM, priority 2017, dated 2021).
Entries after “also recorded” stand apart in the source; their conditions may differ.

Columns and labels:
proteasome = conditions: cited from earlier work
[1] = test system: cultured breast cancer cells; conditions: breast cancer cells poorly responsive to bortezomib; cited from earlier work
[2] = test system: M2-polarized macrophages from U937 cells; assay: Live cell counts of U937-derived M2-type model macrophages; format: cell-based, Human; conditions: 1 μM B1, T test, n=4
Procedure: (§1) FIGS. 17A-B: Model M2-polarized macrophages are sensitive to the treatment with B1, in contrast to model M1-polarized macrophages. (FIG. 17A) Human cultured monocytic U937 cells were in vitro differentiated into M0 macrophages and then polarized into M1-type and M2-type macrophages, in the presence of vehicle (DMSO; control) or in the presence of 1 μM B1. The inventors used established protocol to differentiate U937 cells into macrophages (M0) with PMA (phorbol myristate acetate) and then polarize them into model M1 and M2-like types with interferon γ and LPS (lipopolysaccharide) or interleukins IL-4 and IL-13, respectively. The identity of M1-type and M2-type model macrophages was confirmed by cell staining with specific markers: the fluorescent antibodies recognizing surface proteins CD80 (for M1) and CD163 (for M2). (FIG. 17B) Counts of live cells cultured in the presence or absence of B1 are presented.
(§2) And fourth, the anti-M2 macrophages actions were confirmed in cell culture model.

[3] = PD/PK study in mice xenografted with RPMI 8226 cells; format: in vivo, SCID mice; conditions: single 30 mg/kg i.v.
Procedure: The study involved 11 female SCID mice, with 3 control mice injected with vehicle (5% ethanol, 5% cremophor in water with 5% dextrose [D5W]) and […] injected with B1. The presence of B1 was detected by mass spectrometry in the tumors of B1-injected mice 8 and 12 hours post-injection, at concentrations up to 30.5 ng/g.

[4] = test system: human prostate cancer androgen resistant C4-2 cells; assay: Growth of primary tumor in nude mice xenografted with C4-2 cells; format: in vivo
From the text: In the vehicle-treated mouse, the tumor grew by size more than twice in the span of four weeks, whereas in the B1-treated mouse the tumor shrunk to about 50% of the size at the start of treatment (FIG. 2).
As shown herein, B1 exerts anti-metastatic actions with multiple mechanisms. First, the drug attenuates the growth of the primary tumor. Large tumors shed large number of metastasis seeding circulating tumor cells into circulation, thus increasing the chance of successful colonization of metastatic sites.
(§3) Importantly, in the second, third and fourth mechanisms, the drug acts independently from the size of primary tumor. This was an unexpected effect.

[5] = test system: circulating tumor cells (CTCs); assay: Biophysical profiling of CTCs by atomic force microscopy (PF QNM AFM); format: in vivo, nude mice; conditions: CTCs from blood of B1-treated vs control mice
From the text: It was postulated that the differences in profiles of circulating macrophages, which may destroy CTCs or help them in seeding metastases, are indicative of the metastatic potential of CTCs. To determine the metastatic potential of CTCs isolated from the blood of human prostate cancer patients and mouse cancer models, biophysical profiling by atomic force microscopy (AFM) was employed. This method was used to confirm the decreased aggressiveness of CTCs isolated from the B1-treated mouse.
In short, to determine the mechanical phenotype of cells Peak Force Quantitative Nanomechanical Atomic Force Microscopy (PF QNM AFM) imaging was employed. AFM is a type of stylus profilometry. In this particular AFM technique, a micro-sized probe (tip) interacts with a cell surface with strictly controlled force. At each point of contact, the tip position and the “force plot” presenting mechanical interactions of the tip with a cell surface are recorded. Images are created during raster scanning by the tip. The parameters extracted from the force plots are assembled into topographical (cell morphology) and mechanical maps. The mechanical parameters include elasticity (i.e., pressure needed to indent the cell in a reversible manner), deformation (i.e., the depth of maximal indentation enforced by the probe without breaking the cell membrane), and adhesion (i.e., force needed to lift the tip from the cell surface during the probe withdrawal).
A single AFM scan also provides a shape of the cell to distinguish between epithelial-like and mesenchymal-like phenotypes, and roughness of the cell surface that correlates with activity of apoptotic and EMT pathways (Chen et al, 2013; Osmulski et al., 2014). The integrated inverted fluorescent microscope allows collecting correlative immunocytochemical data about the scanned cells (FIG. 7).
The probe (tip on a cantilever) indents (vertical movement) and scans (lateral movement) the cell surface. After 10-15 min scan of a 1000-2000 μm^2 area, 5 maps of cell morphology, surface topography, elasticity, deformation, and adhesion (FIG. 6) are computed from the force plots (FIG. 7) created for each of the 4000-65,500 single tip-cell contact points with horizontal resolution of 100 nm, vertical resolution of 10 nm and forces as low as 100 pN. It is established that cancerous cell are much softer, deformable and more adhesive than their normal counterparts (Osmulski et al., 2014).
Second, the drug decreases aggressiveness of CTCs. The decrease is apparent by comparison of mechanical phenotypes of CTCs isolated from mice xenografted with human cultured androgen-independent prostate cancer cells C4-2, and treated with vehicle or with B1 (30 mg/kg). The data are presented in FIGS. 11-16 and in Table 1 (FIG. 11 is an extended version of FIG. 8).

[6] = test system: M1-polarized macrophages from U937 cells; assay: Live cell counts of U937-derived M1-type model macrophages; format: cell-based, Human; conditions: 1 μM B1, n=4
Procedure: as §1, §2

[7] = test system: human C4-2 prostate cancer cells; assay: Liver micrometastasis by H&E histology in C4-2 tumor-bearing nude mice; format: in vivo
From the text: FIG. 10: H&E stained histological liver slices of control nude mice with a tumor induced using human C4-2 prostate cancer cells. Suspected micrometastasis sites are marked with black rings. A scale bar represents 500 μm. Micrometastasis was detected with an average frequency in the control group (untreated) 3.75 per mice, whereas in the B1 treated group it was 1.33 per mice.
as §3

M1 and M2 macrophages = assay: Enumeration of circulating M1 and M2 macrophages in blood of xenografted mice; format: in vivo, nude mice
Procedure: (§4) CTCs and macrophages were isolated from the blood of two nude mice xenografted with human prostate cancer androgen resistant C4-2 cells and treated biweekly intratumorally with vehicle or B1 (30 mg/kg). In the vehicle-treated mouse, the tumor grew by size more than twice in the span of four weeks, whereas in the B1-treated mouse the tumor shrunk to about 50% of the size at the start of treatment (FIG. 2).
However, the numbers of circulating macrophages were also much lower in the blood of the B1-treated mouse. […] Consistently, the ratios of pro-tumor and anti-tumor macrophages in control and B1-treated mouse were approximated as 2.5 and 0.5, respectively.
Third, the drug boosts natural anti-cancer immune response. It promotes anti-metastatic profile of macrophages co-purifying with CTCs in the nude mice xenografted with human cultured androgen-independent prostate cancer cells C4-2, and treated with vehicle or with B1 (30 mg/kg). […] Data from one control and one treated mouse are presented in FIG. 5, with data from seven control and six treated mice presented below.

[8] = test system: human cultured androgen-independent prostate cancer cells C4-2; assay: Efficacy study in NOD-SCID mice xenografted with C4-2 cells; format: in vivo
Procedure: FIG. 18. […] The efficacy study was performed with mice xenografted with human cultured androgen-independent prostate cancer cells C4-2. The study involved eleven NOD-SCID mice. […] tumor-growing mice were treated intra-tumorally (IT) with 30 mg/kg B1 twice a week for up to three weeks. The control group (four mice) received a B1 vehicle (dimethylsulfoxide; DMSO). Tumor sizes were measured twice a week.

mTOR pathway = conditions: cited from earlier work
[9] = B1 maximum tolerated dose study; format: in vivo
Procedure: A study to determine the maximum tolerated dose was performed on 30 female CB. 17 SCID mice divided into six groups, five animals each. B1 was administered intravenously (i.v.) once a day (q.d.; three groups) or biweekly (three groups), at concentrations of 3 mg/kg, 10 mg/kg or 30 mg/kg, dissolved in 5% ethanol, 5% cremophor in water with 5% dextrose [D5W]. Mice were treated for 28 days, weighted daily on days 1-5 and then on a twice weekly schedule until day 28. They were observed frequently for adverse effects of treatment. […] Thus, B1 is non-toxic for mice even at the highest tested dose, 30 mg/kg.

[10] = test system: circulating tumor cells (CTCs); assay: Enumeration of circulating tumor cells in blood of xenografted mice; format: in vivo, nude mice
Procedure: as §4
The anti-tumor actions of B1 in nude mice were confirmed by analysis of circulating tumor cells (CTCs). Enumeration of CTCs is used as a prognostic marker in cancer patients. The enumeration was extended to include not only canonical CTCs positive for epithelial marker EpCAM, but also EpCAM negative CTC-like cells positive for markers of epithelial-mesenchymal transition (EMT), indicative of increased aggressiveness of the cells (Chen et al., 2013).

[11] = B1 treated vs control mice (FIG. 16)
[12] = mice with xenografted prostate tumors
[13] = one B1-treated vs one vehicle mouse (FIG. 5)
[14] = seven control and six treated nude mice, B1 30 mg/kg

COc1cc(CCCOC(=O)C2CCCCN2C(=O)C(=O)C2CCCCC2)cc(OC)c1OC (stereo not drawn) [Compound B1, 3-(3,4,5-trimethoxyphenyl)propyl 1-(2-cyclohexyl-2-oxoacetyl) piperidine-2-carboxylate]
26S assembling (proteasome): interferes with 26S assembling | affinity of core particle toward bortezomib (proteasome): increases affinity | concentration at which proteasome activities are influenced (proteasome): nanomolar concentrations | cytotoxic effects with bortezomib [1]: strong cytotoxic effects | counts of live M2-type model macrophages vs control [2]: significantly attenuating viability; also recorded: the difference was statistically significant | concentration of B1 in the tumors ([3]; 8 and 12 hours post-injection, mass spectrometry): up to 30.5 ng/g | tissue localization ([3]; RPMI 8226 xenograft): localized to the xenografted tumor site | tumor size relative to the size at the start of treatment ([4]; one nude mouse, C4-2 xenograft, B1 30 mg/kg intratumorally biweekly, four weeks (FIG. 2)): about 50% | difference in tumor volume increase between control and B1-treated tumors ([4]; selected group of seven control and six B1-treated mice): no significant difference | CTC adhesion vs vehicle ([5]; AFM (FIG. 8, FIG. 11)): less adhesive | CTC deformation vs vehicle ([5]; AFM (FIG. 8, FIG. 11)): less deformable | CTC stiffness (elasticity, Young modulus) vs vehicle ([5]; AFM (FIG. 8, FIG. 11)): harder; also recorded: stiffer | aggressiveness of CTCs ([5]; mechanical phenotype): low aggressiveness; also recorded: significantly lowered aggressiveness | counts of live M1 model macrophages vs control [6]: did not affect viability; also recorded: did not differ | incidence of micrometastases in livers vs controls ([7]; B1-treated mice (FIG. 10)): decreased incidence | average frequency of liver micrometastasis ([7]; B1 treated group (untreated control 3.75)): 1.33 per mice | ratio of pro-tumor (M2) and anti-tumor (M1) macrophages (M1 and M2 macrophages; B1-treated mouse, blood (control mouse 2.5)): ~0.5 | formation of CTC-M2 (chaperoning) clusters (M1 and M2 macrophages; [11]): limited formation | formation of M1-CTC (predatory) clusters (M1 and M2 macrophages; [11]): enhanced formation | decrease of chaperone immune cells (M2 macrophages) vs vehicle (M1 and M2 macrophages; [12]): about four-fold | decrease of the ratio of M2 macrophages to M1 macrophages vs vehicle-treated mouse (M1 and M2 macrophages; [12]): five-fold | M2 pro-tumor macrophages, control mouse relative to B1-treated mouse (M1 and M2 macrophages; [13]): more than four-times | number of M1 predator (anti-tumor) macrophages vs control mouse (M1 and M2 macrophages; [13]): very similar | numbers of circulating macrophages vs vehicle-treated mouse (M1 and M2 macrophages; one B1-treated vs one vehicle mouse, 30 mg/kg intratumorally): much lower | number of anti-cancer M1-type macrophages vs control (M1 and M2 macrophages; [14]): larger number | number of pro-cancer M2-type macrophages vs control (M1 and M2 macrophages; [14]): generally lower number | changes in the weight of animals ([8]; 30 mg/kg B1 intra-tumorally twice a week): did not result in detectable changes | tumor growth vs control group ([8]; 30 mg/kg B1 intra-tumorally twice a week for up to three weeks (FIG. 18)): Significant inhibition; also recorded: significantly attenuated | effect on mTOR pathway (mTOR pathway): not affecting | toxicity at the highest tested dose ([9]; 30 mg/kg i.v., mice): non-toxic | adverse effects on behavior ([9]; i.v. q.d. or biweekly, 3, 10 or 30 mg/kg, 28 days): no adverse effects | differences in body weight between the groups ([9]; i.v. q.d. or biweekly, 3, 10 or 30 mg/kg, 28 days (FIG. 9)): No statistically significant differences | number of highly invasive post-EMT CTCs [10, 11]: diminished | formation of CTCs clusters ([10]; B1 treated vs control mice, heat map cluster analysis (FIG. 16)): diminished formation | decrease of abundance of cancer cells in the blood stream vs vehicle [10, 12]: about five-fold | numbers of CTCs in blood vs vehicle-treated mouse ([10]; one B1-treated vs one vehicle mouse, 30 mg/kg intratumorally, EpCAM or vimentin (FIG. 4)): significantly lower
